In the NIST ThermoML archive (doi:10.1021/je500977g):

Test: mn = molality of the nth substance listed, in mol/kg
Details: Liquid

C[N+](C)(C)[O-] [trimethylamine oxide] + O
mass density [kg/m3]
Details | 298.15 K | 308.15 K | 323.15 K
101 kPa, Vibrating tube method, m1 = 0.0875 | – | 994.21 | 988.2
101 kPa, Vibrating tube method, m1 = 0.1707 | – | 994.38 | 988.37
101 kPa, Vibrating tube method, m1 = 0.2465 | – | 994.54 | 988.53
101 kPa, Vibrating tube method, m1 = 0.3259 | – | 994.71 | 988.7
101 kPa, Vibrating tube method, m1 = 0.4018 | – | 994.88 | 988.86
101 kPa, Vibrating tube method, m1 = 0.5862 | – | 995.31 | 989.27
101 kPa, Vibrating tube method, m1 = 0.7963 | – | 995.8 | 989.75
101 kPa, Vibrating tube method, m1 = 1.039 | – | 996.41 | 990.34
101 kPa, Vibrating tube method, m1 = 1.373 | – | 997.27 | 991.15
101 kPa, Vibrating tube method, m1 = 1.923 | – | 998.77 | 992.62
101 kPa, Vibrating tube method, m1 = 3.259 | – | 1002.83 | 996.37
101 kPa, Vibrating tube method, m1 = 4.325 | – | 1006.27 | 999.45
10000 kPa, Constant-volume piezometry, m1 = 0.1707 | – | 998.64 | 992.59
10000 kPa, Constant-volume piezometry, m1 = 0.3259 | – | 998.93 | 992.87
10000 kPa, Constant-volume piezometry, m1 = 0.5862 | – | 999.44 | 993.35
10000 kPa, Constant-volume piezometry, m1 = 1.039 | – | 1000.4 | 994.29
10000 kPa, Constant-volume piezometry, m1 = 1.373 | – | 1001.17 | 995.02
10000 kPa, Constant-volume piezometry, m1 = 1.923 | – | 1002.54 | 996.38
10000 kPa, Constant-volume piezometry, m1 = 3.259 | – | 1006.31 | 999.89
10000 kPa, Constant-volume piezometry, m1 = 4.325 | – | 1009.52 | 1002.81
25000 kPa, Constant-volume piezometry, m1 = 0.1707 | – | 1004.94 | 998.81
25000 kPa, Constant-volume piezometry, m1 = 0.3259 | – | 1005.15 | 999.01
25000 kPa, Constant-volume piezometry, m1 = 0.5862 | – | 1005.53 | 999.37
25000 kPa, Constant-volume piezometry, m1 = 1.039 | – | 1006.27 | 1000.14
25000 kPa, Constant-volume piezometry, m1 = 1.373 | – | 1006.92 | 1000.75
25000 kPa, Constant-volume piezometry, m1 = 1.923 | – | 1008.08 | 1001.93
25000 kPa, Constant-volume piezometry, m1 = 3.259 | 1015.13 | 1011.45 | 1005.1
25000 kPa, Constant-volume piezometry, m1 = 4.325 | 1018.32 | 1014.35 | 1007.83
50000 kPa, Constant-volume piezometry, m1 = 0.1707 | 1018.48 | 1015.02 | 1008.75
50000 kPa, Constant-volume piezometry, m1 = 0.3259 | 1018.55 | 1015.1 | 1008.83
50000 kPa, Constant-volume piezometry, m1 = 0.5862 | 1018.73 | 1015.28 | 1009.01
50000 kPa, Constant-volume piezometry, m1 = 1.039 | 1019.17 | 1015.72 | 1009.49
50000 kPa, Constant-volume piezometry, m1 = 1.373 | 1019.6 | 1016.14 | 1009.9
50000 kPa, Constant-volume piezometry, m1 = 1.923 | 1020.48 | 1016.98 | 1010.79
50000 kPa, Constant-volume piezometry, m1 = 3.259 | 1023.44 | 1019.69 | 1013.38
50000 kPa, Constant-volume piezometry, m1 = 4.325 | 1026.18 | 1022.07 | 1015.77
75000 kPa, Constant-volume piezometry, m1 = 0.1707 | 1028.27 | 1024.62 | 1018.2
75000 kPa, Constant-volume piezometry, m1 = 0.3259 | 1028.22 | 1024.58 | 1018.18
75000 kPa, Constant-volume piezometry, m1 = 0.5862 | 1028.19 | 1024.56 | 1018.19
75000 kPa, Constant-volume piezometry, m1 = 1.039 | 1028.3 | 1024.68 | 1018.41
75000 kPa, Constant-volume piezometry, m1 = 1.373 | 1028.51 | 1024.9 | 1018.64
75000 kPa, Constant-volume piezometry, m1 = 1.923 | 1029.06 | 1025.43 | 1019.23
75000 kPa, Constant-volume piezometry, m1 = 3.259 | 1031.32 | 1027.51 | 1021.32
75000 kPa, Constant-volume piezometry, m1 = 4.325 | 1033.57 | 1029.5 | 1023.38
100000 kPa, Constant-volume piezometry, m1 = 0.1707 | 1037.61 | 1033.77 | 1027.22
100000 kPa, Constant-volume piezometry, m1 = 0.3259 | 1037.41 | 1033.59 | 1027.09
100000 kPa, Constant-volume piezometry, m1 = 0.5862 | 1037.18 | 1033.39 | 1026.94
100000 kPa, Constant-volume piezometry, m1 = 1.039 | 1036.99 | 1033.25 | 1026.92
100000 kPa, Constant-volume piezometry, m1 = 1.373 | 1036.98 | 1033.26 | 1027
100000 kPa, Constant-volume piezometry, m1 = 1.923 | 1037.22 | 1033.48 | 1027.3
100000 kPa, Constant-volume piezometry, m1 = 3.259 | 1038.74 | 1034.99 | 1028.88
100000 kPa, Constant-volume piezometry, m1 = 4.325 | 1040.54 | 1036.64 | 1030.78
